Results as given in patent publication US7935702B2, “Substituted biaryl quinolin-4-ylamine analogues” (Neurogen Corporation, priority 2004, dated 2011).

Target: T1, human capsaicin receptor (Homo sapiens, UniProt Q8NER1)
T1 construct: expressed in transfected cells
Experiment: Calcium mobilization assay, determination of antagonist activity (Example 6)
Format: cell-based
Conditions: Table I; IC50 determined as described in Example 6; read-out: IC50
Description: A cDNA encoding full length human capsaicin receptor (SEQ ID NO:1, 2 or 3 of U.S. Pat. No. 6,482,611) is subcloned in the plasmid pBK-CMV (Stratagene, La Jolla, Calif.) for recombinant expression in mammalian cells.
Human embryonic kidney (HEK293) cells are transfected with the pBK-CMV expression construct encoding the full length human capsaicin receptor using standard methods. The transfected cells are selected for two weeks in media containing G418 (400 μg/ml) to obtain a pool of stably transfected cells. Independent clones are isolated from this pool by limiting dilution to obtain clonal stable cell lines for use in subsequent experiments.
This Example illustrates representative calcium mobilization assays for use in evaluating test compounds for agonist and antagonist activity.
Cells transfected with expression plasmids (as described in Example 4) and thereby expressing human capsaicin receptor are seeded and grown to 70-90% confluency in FALCON black-walled, clear-bottomed 96-well plates (#3904, BECTON-DICKINSON, Franklin Lakes, N.J.). The culture medium is emptied from the 96 well plates and FLUO-3 AM calcium sensitive dye (Molecular Probes, Eugene, Oreg.) is added to each well (dye solution: 1 mg FLUO-3 AM, 440 μL DMSO and 440 μl 20% pluronic acid in DMSO, diluted 1:250 in Krebs-Ringer HEPES (KRH) buffer (25 mM HEPES, 5 mM KCl, 0.96 mM NaH2PO4, 1 mM MgSO4, 2 mM CaCl2, 5 mM glucose, 1 mM probenecid, pH 7.4), 50 μl diluted solution per well). Plates are covered with aluminum foil and incubated at 37° C. for 1-2 hours in an environment containing 5% CO2. After the incubation, the dye is emptied from the plates, and the cells are washed once with KRH buffer, and resuspended in KRH buffer.
To measure the ability of a test compound to agonize or antagonize a calcium mobilization response in cells expressing capsaicin receptors to capsaicin or other vanilloid agonist, the EC50 of the agonist capsaicin is first determined. An additional 20 μl of KRH buffer and 1 μl DMSO is added to each well of cells, prepared as described above. 100 μl capsaicin in KRH buffer is automatically transferred by the FLIPR instrument to each well. Capsaicin-induced calcium mobilization is monitored using either FLUOROSKAN ASCENT (Labsystems; Franklin, Mass.) or FLIPR (fluorometric imaging plate reader system; Molecular Devices, Sunnyvale, Calif.) instruments. Data obtained between 30 and 60 seconds after agonist application are used to generate an 8-point concentration response curve, with final capsaicin concentrations of 1 nM to 3 μM. KALEIDAGRAPH software (Synergy Software, Reading, Pa.) is used to fit the data to the equation: y=a*(1/(1+(b/x)^c)) to determine the 50% excitatory concentration (EC50) for the response. In this equation, y is the maximum fluorescence signal, x is the concentration of the agonist or antagonist (in this case, capsaicin), a is the Emax, b corresponds to the EC50 value and c is the Hill coefficient. Determination of Agonist Activity
Test compounds are dissolved in DMSO, diluted in 20 μl KRH buffer so that the final concentration of test compounds in the assay well is between 1 μM and 5 μM, and added to cells prepared as described above. The 96 well plates containing prepared cells and test compounds are incubated in the dark, at room temperature for 0.5 to 6 hours. It is important that the incubation not continue beyond 6 hours. Just prior to determining the fluorescence response, 100 μl capsaicin in KRH buffer at twice the EC50 concentration determined as described above is automatically added by the FLIPR instrument to each well of the 96 well plate for a final sample volume of 200 μl and a final capsaicin concentration equal to the EC50. The final concentration of test compounds in the assay wells is between 1 μM and 5 μM. […]

T1 sequence (Q8NER1 whole entry): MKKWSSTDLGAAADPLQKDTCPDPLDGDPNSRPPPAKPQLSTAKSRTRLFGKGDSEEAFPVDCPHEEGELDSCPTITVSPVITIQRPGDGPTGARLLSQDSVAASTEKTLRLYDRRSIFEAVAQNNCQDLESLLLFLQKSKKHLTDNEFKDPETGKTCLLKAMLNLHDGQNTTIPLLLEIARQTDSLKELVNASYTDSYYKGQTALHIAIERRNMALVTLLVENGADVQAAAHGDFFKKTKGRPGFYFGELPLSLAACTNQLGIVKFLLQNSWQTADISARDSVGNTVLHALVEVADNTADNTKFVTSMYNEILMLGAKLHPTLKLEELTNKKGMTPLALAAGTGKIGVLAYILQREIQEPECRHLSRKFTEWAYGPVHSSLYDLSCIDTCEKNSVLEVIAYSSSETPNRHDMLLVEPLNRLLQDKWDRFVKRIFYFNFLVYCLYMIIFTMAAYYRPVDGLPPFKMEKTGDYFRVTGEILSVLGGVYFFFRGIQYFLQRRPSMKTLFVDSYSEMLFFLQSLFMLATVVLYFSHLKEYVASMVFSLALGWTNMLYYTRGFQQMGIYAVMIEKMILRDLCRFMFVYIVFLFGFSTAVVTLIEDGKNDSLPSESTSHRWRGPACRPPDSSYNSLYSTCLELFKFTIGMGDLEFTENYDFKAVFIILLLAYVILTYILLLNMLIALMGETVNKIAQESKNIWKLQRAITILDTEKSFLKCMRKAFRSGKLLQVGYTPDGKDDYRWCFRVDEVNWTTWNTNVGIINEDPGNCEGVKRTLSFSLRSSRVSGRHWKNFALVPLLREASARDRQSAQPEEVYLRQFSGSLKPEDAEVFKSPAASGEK

IC50, < 1 µM:
O=C(O)c1cnc(-c2cnc3c(Nc4ccc(C(F)(F)F)cn4)ccnc3n2)c(C(F)(F)F)c1 [compound 33, 5-(trifluoromethyl)-6-(8-{[5-(trifluoromethyl)-2-pyridinyl]amino}pyrido[2,3-b]pyrazin-3-yl)nicotinic acid]
NC(=O)c1cnc(-c2cnc3c(Nc4cnc(C(F)(F)F)cn4)ccnc3n2)c(C(F)(F)F)c1 [compound 34, 5-(trifluoromethyl)-6-(8-{[5-(trifluoromethyl)pyrazin-2-yl]amino}pyrido[2,3-b]pyrazin-3-yl)nicotinamide]
NC(=O)c1cnc(-c2cnc3c(Nc4cnc5ccccc5n4)ccnc3n2)c(C(F)(F)F)c1 [compound 35, 6-[8-(quinoxalin-2-ylamino)pyrido[2,3-b]pyrazin-3-yl]-5-(trifluoromethyl)nicotinamide]
N#Cc1ccc(-c2cnc3c(Nc4ccc(C(F)(F)F)cn4)ccnc3n2)c(C(F)(F)F)c1 [compound 36, 3-(trifluoromethyl)-4-(8-{[5-(trifluoromethyl)pyridin-2-yl]amino}pyrido[2,3-b]pyrazin-3-yl)benzonitrile]
NC(=O)c1ccc(-c2cnc3c(Nc4ccc(C(F)(F)F)cn4)ccnc3n2)c(C(F)(F)F)c1 [compound 37, 3-(trifluoromethyl)-4-(8-{[5-(trifluoromethyl)pyridin-2-yl]amino}pyrido[2,3-b]pyrazin-3-yl)benzamide]
O=C(O)c1ccc(-c2cnc3c(Nc4ccc(C(F)(F)F)cn4)ccnc3n2)c(C(F)(F)F)c1 [compound 38, 3-(trifluoromethyl)-4-(8-{[5-(trifluoromethyl)pyridin-2-yl]amino}pyrido[2,3-b]pyrazin-3-yl)benzoic acid]
CS(=O)(=O)c1ccc(-c2cnc3c(Nc4ccc(C(F)(F)F)cn4)ccnc3n2)c(C(F)(F)F)c1 [compound 41, 3-[4-(methylsulfonyl)-2-(trifluoromethyl)phenyl]-N-[5-(trifluoromethyl)pyridin-2-yl]pyrido[2,3-b]pyrazin-8-amine]
CCOc1nc(Nc2ccnc3nc(-c4ccc(C#N)cc4C(F)(F)F)cnc23)ccc1C(F)(F)F [compound 42, 4-(8-{[6-ethoxy-5-(trifluoromethyl)pyridin-2-yl]amino}pyrido[2,3-b]pyrazin-3-yl)-3-(trifluoromethyl)benzonitrile]
CCOc1nc(Nc2ccnc3nc(-c4ccc(C(N)=O)cc4C(F)(F)F)cnc23)ccc1C(F)(F)F [compound 43, 4-(8-{[6-ethoxy-5-(trifluoromethyl)pyridin-2-yl]amino}pyrido[2,3-b]pyrazin-3-yl)-3-(trifluoromethyl)benzamide]
CCOc1nc(Nc2ccnc3nc(-c4ccc(C(=O)O)cc4C(F)(F)F)cnc23)ccc1C(F)(F)F [compound 44, 4-(8-{[6-ethoxy-5-(trifluoromethyl)pyridin-2-yl]amino}pyrido[2,3-b]pyrazin-3-yl)-3-(trifluoromethyl)benzoic acid]
CCOc1nc(Nc2ccnc3nc(-c4ncc(C(N)=O)cc4C(F)(F)F)cnc23)ccc1C(F)(F)F [compound 48, 6-(8-{[6-ethoxy-5-(trifluoromethyl)pyridin-2-yl]amino}pyrido[2,3-b]pyrazin-3-yl)-5-(trifluoromethyl)nicotinamide]
FC(F)(F)c1ccc(Nc2ccnc3nc(-c4nnc(NCCN5CCCCC5)cc4C(F)(F)F)cnc23)nc1 [compound 53, 3-{6-[(2-piperidin-1-ylethyl)amino]-4-(trifluoromethyl)pyridazin-3-yl}-N-[5-(trifluoromethyl)-pyridin-2-yl]pyrido[2,3-b]pyrazin-8-amine]
CC(C)N(CCNc1cc(C(F)(F)F)c(-c2cnc3c(Nc4ccc(C(F)(F)F)cn4)ccnc3n2)nn1)C(C)C [compound 66, N,N-diisopropyl-N′-[5-(trifluoromethyl)-6-(8-{[5-(trifluoromethyl)pyridin-2-yl]amino}pyrido[2,3-b]pyrazin-3-yl)pyridazin-3-yl]ethane-1,2-diamine]
CCN(CC)CCCCNc1cc(C(F)(F)F)c(-c2cnc3c(Nc4ccc(C(F)(F)F)cn4)ccnc3n2)nn1 [compound 69, N,N-diethyl-N′-[5-(trifluoromethyl)-6-(8-{[5-(trifluoromethyl)pyridin-2-yl]amino}pyrido[2,3-b]pyrazin-3-yl)pyridazin-3-yl]butane-1,4-diamine]
CCCCN(C)CCNc1cc(C(F)(F)F)c(-c2cnc3c(Nc4ccc(C(F)(F)F)cn4)ccnc3n2)nn1 [compound 70, N-butyl-N-methyl-N′-[5-(trifluoromethyl)-6-(8-{[5-(trifluoromethyl)pyridin-2-yl]amino}pyrido[2,3-b]pyrazin-3-yl)pyridazin-3-yl]ethane-1,2-diamine]
CC(C)N1CCN(c2cc(C(F)(F)F)c(-c3cnc4c(Nc5ccc(C(F)(F)F)cn5)ccnc4n3)nn2)CC1 [compound 75, 3-[6-(4-isopropylpiperazin-1-yl)-4-(trifluoromethyl)-pyridazin-3-yl]-N-[5-(trifluoromethyl)pyridin-2-yl]pyrido[2,3-b]pyrazin-8-amine]
CCN(CC)C1CCN(c2cc(C(F)(F)F)c(-c3cnc4c(Nc5ccc(C(F)(F)F)cn5)ccnc4n3)nn2)CC1 [compound 80]
CCCN(CCC)C1CCN(c2cc(C(F)(F)F)c(-c3cnc4c(Nc5ccc(C(F)(F)F)cn5)ccnc4n3)nn2)CC1 [compound 81, 3-{6-[4-(dipropylamino)-piperidin-1-yl]-4-(trifluoro-methyl)pyridazin-3-yl}-N-[5-(trifluoromethyl)pyridin-2-yl]pyrido[2,3-b]pyrazin-8-amine]
CCCN(CC1CC1)C1CCN(c2cc(C(F)(F)F)c(-c3cnc4c(Nc5ccc(C(F)(F)F)cn5)ccnc4n3)nn2)CC1 [compound 87, 3-[6-{4-[(cyclopropylmethyl)-(propyl)amino]piperidin-1-yl}-4-(trifluoromethyl)-pyridazin-3-yl]-N-[5-(trifluoromethyl)pyridin-2-yl]-pyrido[2,3-b]pyrazin-8-amine]
CN(C)CCCN(C)c1cc(C(F)(F)F)c(-c2cnc3c(Nc4ccc(C(F)(F)F)cn4)ccnc3n2)nn1 [compound 88, N,N,N′-trimethyl-N′-[5-(trifluoromethyl)-6-(8-{[5-(trifluoromethyl)pyridin-2-yl]amino}pyrido[2,3-b]pyrazin-3-yl)pyridazin-3-yl]propane-1,3-diamine]
CCN(C)CCN(CC)c1cc(C(F)(F)F)c(-c2cnc3c(Nc4ccc(C(F)(F)F)cn4)ccnc3n2)nn1 [compound 91, N,N′-diethyl-N-methyl-N′-[5-(trifluoromethyl)-6-(8-{[5-(trifluoromethyl)pyridin-2-yl]amino}pyrido[2,3-b]pyrazin-3-yl)pyridazin-3-yl]ethane-1,2-diamine]
CC(C)CNc1cc(C(F)(F)F)c(-c2cnc3c(Nc4ccc(C(F)(F)F)cn4)ccnc3n2)nn1 [compound 99, 3-[6-(isobutylamino)-4-(trifluoromethyl)pyridazin-3-yl]-N-[5-(trifluoromethyl)-pyridin-2-yl]pyrido[2,3-b]pyrazin-8-amine]
